The source of these data is EP3345917A1, “ANTIPROTOZOAL COMPOUNDS” (Bacoba AG, priority 2017, dated 2018).

Non-standard residues stand in square brackets, D forms with d. Residues, ends and D or L forms follow the SMILES beside them. *: point of attachment. Benzenesulfonyl(4-F) = O=S(=O)(c1ccc(F)cc1)*; Hexenoyl(2E,4S-Me) = CC[C@H](C)/C=C/C(=O)*; Leu(3R-OH) = CC(C)[C@@H](O)[C@H](N)C(=O)O; NH((S)CH(Me)CH2NMe2) = C[C@@H](CN(C)C)N*; Pro(4S-Me) = C[C@@H]1CN[C@H](C(=O)O)C1; Gly(octyl) = CCCCCCCC[C@H](N)C(=O)O; Nva(5-OH) = N[C@@H](CCCO)C(=O)O; Hexanoyl = CCCCCC(=O)*; Aib = CC(C)(N)C(=O)O; X7 = CN(C)CC(C)(C)N*; X2 = CN(C)CCN(C)*; βAla = NCCC(=O)O

Series [1] deals with intracellular Leishmania donovani (L.don. InMac). Put plainly: Intracellular Leishmania donovani assay (L.don. InMac). It counts as cell-based. The conditions noted are these: In vitro inhibition. An excerpt: (§1) Tests were done in triplicate.
Series [2] relates to Trypanosoma brucei rhodesiense (STIB 900 strain). Nature of the series: Alamar Blue assay against Trypanosoma brucei rhodesiense grown in axenic medium. It counts as cell-based. The conditions noted are these: In vitro inhibition, read-out: T.b.rhod. The method, boiled down: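 Alamar Blue-based IC50 determination, in triplicate, on axenically grown STIB 900 trypanosomes. Melarsoprol included as reference.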
On the technique in general: The colour change of resazurin is a common sign of viable cells or microbes.

Series [3] deals with Trypanosoma cruzi trypomastigote forms (Tulahuen strain). Nature of the series: Intracellular Trypanosoma cruzi assay in L6-cells, beta-galactosidase/CPRG readout. It counts as cell-based. To be noted: In vitro inhibition, read-out: T.cruzi. Put shortly: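 Readout was β-galactosidase cleavage of CPRG, read photometrically at 540 nm after 2–6 h colour development, giving IC50 values. Parasites: LacZ-expressing Tulahuen C2C4 strain grown in rat L6 myoblasts; run in triplicate.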

Series [4] has as its system Axenically grown Leishmania donovani amastigotes (strain MHOM/ET/67/L82). Nature of the series: Axenic Leishmania donovani amastigote resazurin assay. The class given is cell-based. To be noted: In vitro inhibition, read-out: L.don. ax. The method, boiled down:
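IC50 values derive from resazurin fluorescence (ex 536 nm, em 588 nm), expressed relative to the negative control, after 2-4 hours of plate development. Axenic amastigotes of strain MHOM/ET/67/L82 were used; each test run in triplicate.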

The subject of another series is Plasmodium falciparum. Nature of the series: 3H-hypoxanthine incorporation assay against Plasmodium falciparum. The conditions noted are these: In vitro inhibition, read-out: P.falc NF5. It counts as cell-based. Here is the method:
as §1
IC50 values were calculated by linear interpolation.

Series [5] in a line: Cytotoxicity assay on L6-cells (Alamar Blue). To be noted: rat, Cytotox L6, Cytotoxicity against rat myoblast cells (L6).

For the compound `CCCCCCCC[C@H](NC(=O)[C@@H]1CCCN1C(=O)/C=C/[C@@H](C)CC)C(=O)N[C@H](C(=O)NC(C)(C)C(=O)N[C@@H](CC(C)C)C(=O)N[C@@H](CC(C)C)C(=O)NC(C)(C)C(=O)NC(C)(C)C(=O)NCCC(=O)N[C@@H](C)CN(C)C)[C@H](O)C(C)C` [Compound 5488, (2S)-N-[(1S,2R)-1-[(1-{[(1S)-1-{[(1S)-1-{[1-({1-[(2-{[(2S)-1-(dimethylamino)propan-2-yl]carbamoyl}ethyl)carbamoyl]-1-methylethyl}carbamoyl)-1-methylethyl]carbamoyl}-3-methylbutyl]carbamoyl}-3-methylbutyl]carbamoyl}-1-methylethyl)carbamoyl]-2-hydroxy-3-methylbutyl]-2-{[(2S)-1-[(2E,4S)-4-methylhex-2-enoyl]pyrrolidin-2-yl]formamido}decanamide] ({Hexenoyl(2E,4S-Me)}-P[Gly(octyl)][Leu(3R-OH)][Aib]LL[Aib][Aib][βAla]-{NH((S)CH(Me)CH2NMe2)}), the IC50 in series [1] was found to be 20.2 nM; in series [2], 2 nM; in series [3], 33.6 nM; in series [4], 0.6 nM; in the series with Plasmodium falciparum it was 2.6 nM. Further, in series [5], the IC50 at 70 h is 666 nM.
With `CC[C@H](C)/C=C/C(=O)N1C[C@@H](C)C[C@H]1C(=O)N[C@@H](CCCO)C(=O)N[C@H](C(=O)NC(C)(C)C(=O)N[C@@H](CC(C)C)C(=O)N[C@@H](CC(C)C)C(=O)NC(C)(C)C(=O)NC(C)(C)C(=O)NCCC(=O)N[C@@H](C)CN(C)C)[C@H](O)C(C)C` [Compound 5496, (2S,3R)-N-(1-{[(1S)-1-{[(1S)-1-{[1-({1-[(2-{[(2S)-1-(dimethylamino)propan-2-yl]carbamoyl}ethyl)carbamoyl]-1-methylethyl}carbamoyl)-1-methylethyl]carbamoyl}-3-methylbutyl]carbamoyl}-3-methylbutyl]carbamoyl}-1-methylethyl)-3-hydroxy-2-[(2S)-5-hydroxy-2-{[(2S,4S)-4-methyl-1-[(2E,4S)-4-methylhex-2-enoyl]pyrrolidin-2-yl]formamido}pentanamido]-4-methylpentanamide] ({Hexenoyl(2E,4S-Me)}-[Pro(4S-Me)][Nva(5-OH)][Leu(3R-OH)][Aib]LL[Aib][Aib][βAla]-{NH((S)CH(Me)CH2NMe2)}), the IC50 in series [1] worked out at 2680 nM; in series [2], 6.2 nM; in series [3], 5110 nM; in series [4], 467 nM; in the series on Plasmodium falciparum, 660 nM. The compound further returned an IC50 at 70 h in series [5] of 5220 nM.
Consider `CCCCCCCC[C@H](NC(=O)[C@@H]1CCCN1C(=O)CCCCC)C(=O)N[C@@H](CC(C)C)C(=O)NC(C)(C)C(=O)N[C@@H](CC(C)C)C(=O)N[C@@H](CC(C)C)C(=O)NC(C)(C)C(=O)NC(C)(C)C(=O)NCCC(=O)N(C)CCN(C)C` [Compound 5644, (2S)-N-[(1S)-1-[(1-{[(1S)-1-{[(1S)-1-{[1-({1-[(2-{[2-(dimethylamino)ethyl](methyl)carbamoyl}ethyl)carbamoyl]-1-methylethyl}carbamoyl)-1-methylethyl]carbamoyl}-3-methylbutyl]carbamoyl}-3-methylbutyl]carbamoyl}-1-methylethyl)carbamoyl]-3-methylbutyl]-2-{[(2S)-1-hexanoylpyrrolidin-2-yl]formamido}decanamide] (Hexanoyl-P[Gly(octyl)]L[Aib]LL[Aib][Aib][βAla]-X2), for which the IC50 stood at 844 nM in series [1]; 208 nM in series [2]; 1470 nM in series [3]; 148 nM in series [4]; 26 nM in the series on Plasmodium falciparum. The IC50 at 70 h in series [5] was found to be 1240 nM.
Take `CCCCCCCC[C@H](NC(=O)[C@@H]1CCCN1C(=O)CCCCC)C(=O)N[C@@H](CC(C)C)C(=O)NC(C)(C)C(=O)N[C@H](CC(C)C)C(=O)N[C@H](CC(C)C)C(=O)NC(C)(C)C(=O)NC(C)(C)C(=O)NCCC(=O)N[C@@H](C)CN(C)C` [Compound 5850, (2S)-N-[(1S)-1-[(1-{[(1R)-1-{[(1R)-1-{[1-({1-[(2-{[(2S)-1-(dimethylamino)propan-2-yl]carbamoyl}ethyl)carbamoyl]-1-methylethyl}carbamoyl)-1-methylethyl]carbamoyl}-3-methylbutyl]carbamoyl}-3-methylbutyl]carbamoyl}-1-methylethyl)carbamoyl]-3-methylbutyl]-2-{[(2S)-1-hexanoylpyrrolidin-2-yl]formamido}decanamide] (Hexanoyl-P[Gly(octyl)]L[Aib][dL][dL][Aib][Aib][βAla]-{NH((S)CH(Me)CH2NMe2)}): the IC50 in series [1] amounted to 71.5 nM; in series [2], 18.5 nM; in series [3], 319 nM; in series [4], 8.8 nM; with Plasmodium falciparum it was 0.9 nM. This compound displayed an IC50 at 70 h in series [5] of 820 nM.
For the compound `CCCCCCCC[C@H](NC(=O)[C@@H]1CCCN1S(=O)(=O)c1ccc(F)cc1)C(=O)N[C@@H](CC(C)C)C(=O)NC(C)(C)C(=O)N[C@@H](CC(C)C)C(=O)N[C@@H](CC(C)C)C(=O)NC(C)(C)C(=O)NC(C)(C)C(=O)NCCC(=O)N[C@@H](C)CN(C)C` [Compound 5935, (2S)-N-[(1S)-1-[(1-{[(1S)-1-{[(1S)-1-{[1-({1-[(2-{[(2S)-1-(dimethylamino)propan-2-yl]carbamoyl}ethyl)carbamoyl]-1-methylethyl}carbamoyl)-1-methylethyl]carbamoyl}-3-methylbutyl]carbamoyl}-3-methylbutyl]carbamoyl}-1-methylethyl)carbamoyl]-3-methylbutyl]-2-{[(2S)-1-(4-fluorobenzenesulfonyl)pyrrolidin-2-yl]formamido}decanamide] ({Benzenesulfonyl(4-F)}-P[Gly(octyl)]L[Aib]LL[Aib][Aib][βAla]-{NH((S)CH(Me)CH2NMe2)}), the IC50 in series [1] was below 33.5 nM; in series [2] it was 42400 nM; in series [3], 33.5 nM; in series [4], 14500 nM; in the series on Plasmodium falciparum, 47300 nM. This compound registered an IC50 at 70 h in series [5] of 384 nM.
Turning to `CCCCCCCC[C@H](NC(=O)[C@@H]1CCCN1C(=O)CCCCC)C(=O)N[C@@H](CC(C)C)C(=O)NC(C)(C)C(=O)N[C@@H](CC(C)C)C(=O)N[C@@H](CC(C)C)C(=O)NC(C)(C)C(=O)NC(C)(C)C(=O)NCCC(=O)NC(C)(C)CN(C)C` [Compound 5889, (2S)-N-[(1S)-1-[(1-{[(1S)-1-{[(1S)-1-{[1-({1-[(2-{[1-(dimethylamino)-2-methylpropan-2-yl]carbamoyl}ethyl)carbamoyl]-1-methylethyl}carbamoyl)-1-methylethyl]carbamoyl}-3-methylbutyl]carbamoyl}-3-methylbutyl]carbamoyl}-1-methylethyl)carbamoyl]-3-methylbutyl]-2-{[(2S)-1-hexanoylpyrrolidin-2-yl]formamido}decanamide] (Hexanoyl-P[Gly(octyl)]L[Aib]LL[Aib][Aib][βAla]-X7), the IC50 in series [1] was 86.5 nM; in series [2] it was 15.9 nM; in series [3], 248 nM; in series [4] it was 11100 nM; in the series with Plasmodium falciparum, 199 nM. Besides, in series [5], the IC50 at 70 h came out at 959 nM.
